Results published in patent publication US11607458B2 (Georgia State University Research Foundation, Inc, priority 2017, dated 2023).
Where “and” joins values, the source holds several entries; their conditions need not be identical. Identical values can stand only once.

Tests used:
[1] = HPLC studies of reaction kinetics of tetrazine prodrugs with cyclooctyne alkynes (Kobs, second-order rate constant k2); assay type: physicochemical; conditions: for Kobs: prodrug 25 μM; for k2 at 37° C. (second order rate constant) / k2 at r.t (second order rate constant): PBS containing 10% DMSO, n = 3
Outline: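 Tetrazine prodrug (25 μM) reacted with alkyne at 0.75, 1 and 1.25 mM in PBS with 10% DMSO, at room temperature or 37 °C. Prodrug HPLC peak area was sampled every 30 min and fitted to single exponential decay for kobs; k2 was taken as the slope of kobs versus alkyne concentration.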

[2] = Release of the parent drug (Dox / dansyl amine) from prodrugs treated with alkynes, monitored by HPLC; assay type: physicochemical; conditions: r.t, PBS 10% DMSO
Method: (§1) Standard curve of Dox concentration measurement. To four HPLC vials containing 0.9 mL PBS (size: 1.5 mL) were added 25, 15, 20, 10 μL Dox stock solution (1 mM) respectively. Then defined amounts DMSO (975, 985, 980, and 990 μL) were added to each vial to afford final concentration of four vials were 25, 15, 20, 10 μM in PBS (10% DMSO), respectively. The samples were analyzed with HPLC method A. Dox retention time: 4.0 min.
as §1, with “for DA” for “of Dox”, “B. DA” for “A. Dox”, “5.8” for “4.0”
General procedures HPLC studies of reaction kinetics. To three 20-ml vials with 9 mL PBS were added a solution of tetrazine prodrug (500 μL, 500 μM). 350 μL, 300 μL and 250 μL DMSO were added to vial respectively, and then 150 μL, 200 μL and 250 μL of the alkyne solution (50 mM in DMSO) were added to the vials to afford final concentrations of alkyne 0.75 mM, 1 mM and 1.25 mM in PBS (10% DMSO, 25 μM prodrug) respectively. The reaction was stirred at r.t or 37° C. respectively. Every 30 min about 500 μL reaction mixtures were taken out and 20 μL of them were injected into the HPLC by the autosampler; the rest of them were poured back to the reaction mixture. (Note: In the cases of prodrugs 1d or 1b reacting with alkyne 2d at 37° C., the final concentrations of 2d in the kinetic studies were 250 μM, 300 μM and 350 μM).
Results. The results from the reaction kinetics studies of the tetrazine-cyclooctyne system are summarized below in Table 4. Prodrugs 1d or 1b (25 μM) were treated with alkynes 2d, 2c ,2a, or 2b at different concentrations at room temperature (r.t.) or 37° C., respectively. The prodrug consumption and release of the parent drug were monitored by HPLC (Table 4).

C#CCOc1ccc(-c2nnc(C(=O)NCCCOCCOCCOCCCNS(=O)(=O)c3cccc4c(N(C)C)cccc34)nn2)cc1 [1d]
Kobs ([1]; 37° C., alkyne 2b 0.75 mM, Expt. 1): 0.411 h⁻¹
Kobs ([1]; 37° C., alkyne 2b 0.75 mM, Expt. 2): 0.388 h⁻¹
Kobs ([1]; 37° C., alkyne 2b 0.75 mM, Expt. 3): 0.353 h⁻¹
Kobs ([1]; 37° C., alkyne 2b 1.00 mM, Expt. 1): 0.548 h⁻¹
Kobs ([1]; 37° C., alkyne 2b 1.00 mM, Expt. 2): 0.511 h⁻¹
Kobs ([1]; 37° C., alkyne 2b 1.00 mM, Expt. 3): 0.453 h⁻¹
Kobs ([1]; 37° C., alkyne 2b 1.25 mM, Expt. 1): 0.695 h⁻¹
Kobs ([1]; 37° C., alkyne 2b 1.25 mM, Expt. 2): 0.636 h⁻¹
Kobs ([1]; 37° C., alkyne 2b 1.25 mM, Expt. 3): 0.561 h⁻¹
Kobs ([1]; 37° C., alkyne 2c 0.75 mM, Expt. 1): 0.0506 h⁻¹
Kobs ([1]; 37° C., alkyne 2c 0.75 mM, Expt. 2): 0.0584 h⁻¹
Kobs ([1]; 37° C., alkyne 2c 0.75 mM, Expt. 3): 0.0599 h⁻¹
Kobs ([1]; 37° C., alkyne 2c 1.00 mM, Expt. 1): 0.0670 h⁻¹
Kobs ([1]; 37° C., alkyne 2c 1.00 mM, Expt. 2): 0.0781 h⁻¹
Kobs ([1]; 37° C., alkyne 2c 1.00 mM, Expt. 3): 0.0801 h⁻¹
Kobs ([1]; 37° C., alkyne 2c 1.25 mM, Expt. 1): 0.083 h⁻¹
Kobs ([1]; 37° C., alkyne 2c 1.25 mM, Expt. 2): 0.0978 h⁻¹
Kobs ([1]; 37° C., alkyne 2c 1.25 mM, Expt. 3): 0.101 h⁻¹
Kobs ([1]; 37° C., alkyne 2d 0.25 mM, Expt. 1): 1.82 h⁻¹
Kobs ([1]; 37° C., alkyne 2d 0.25 mM, Expt. 2): 1.64 h⁻¹
Kobs ([1]; 37° C., alkyne 2d 0.25 mM, Expt. 3): 1.90 h⁻¹
Kobs ([1]; 37° C., alkyne 2d 0.3 mM, Expt. 1): 2.15 h⁻¹
Kobs ([1]; 37° C., alkyne 2d 0.3 mM, Expt. 2): 1.94 h⁻¹
Kobs ([1]; 37° C., alkyne 2d 0.3 mM, Expt. 3): 2.26 h⁻¹
Kobs ([1]; 37° C., alkyne 2d 0.35 mM, Expt. 1): 2.53 h⁻¹
Kobs ([1]; 37° C., alkyne 2d 0.35 mM, Expt. 2): 2.25 h⁻¹
Kobs ([1]; 37° C., alkyne 2d 0.35 mM, Expt. 3): 2.65 h⁻¹
k2 at 37° C. (second order rate constant) ([1]; alkyne 2b, 37° C.): 0.14 M⁻¹ s⁻¹ and 0.14 ± 0.04 M⁻¹ s⁻¹
k2 at r.t (second order rate constant) ([1]; alkyne 2b, r.t): 0.042 M⁻¹ s⁻¹ and 0.042 ± 0.012 M⁻¹ s⁻¹
k2 at 37° C. (second order rate constant) ([1]; alkyne 2c, 37° C.): 0.021 M⁻¹ s⁻¹ and 0.021 ± 0.005 M⁻¹ s⁻¹
k2 at r.t (second order rate constant) ([1]; alkyne 2c, r.t): 0.0075 M⁻¹ s⁻¹ and 0.0075 ± 0.0009 M⁻¹ s⁻¹
k2 at 37° C. (second order rate constant) ([1]; alkyne 2d, 37° C.): 1.9 M⁻¹ s⁻¹ and 1.9 ± 0.4 M⁻¹ s⁻¹
k2 at r.t (second order rate constant) ([1]; alkyne 2d, r.t): 0.25 M⁻¹ s⁻¹ and 0.25 ± 0.06 M⁻¹ s⁻¹
Kobs ([1]; r.t, alkyne 2b 0.75 mM, Expt. 1): 0.125 h⁻¹
Kobs ([1]; r.t, alkyne 2b 0.75 mM, Expt. 2): 0.115 h⁻¹
Kobs ([1]; r.t, alkyne 2b 0.75 mM, Expt. 3): 0.13 h⁻¹
Kobs ([1]; r.t, alkyne 2b 1.00 mM, Expt. 1): 0.155 h⁻¹
Kobs ([1]; r.t, alkyne 2b 1.00 mM, Expt. 2): 0.148 h⁻¹
Kobs ([1]; r.t, alkyne 2b 1.00 mM, Expt. 3): 0.175 h⁻¹
Kobs ([1]; r.t, alkyne 2b 1.25 mM, Expt. 1): 0.199 h⁻¹
Kobs ([1]; r.t, alkyne 2b 1.25 mM, Expt. 2): 0.180 h⁻¹
Kobs ([1]; r.t, alkyne 2b 1.25 mM, Expt. 3): 0.22 h⁻¹
Kobs ([1]; r.t, alkyne 2c 0.75 mM, Expt. 1): 0.0203 h⁻¹
Kobs ([1]; r.t, alkyne 2c 0.75 mM, Expt. 2): 0.0201 h⁻¹
Kobs ([1]; r.t, alkyne 2c 0.75 mM, Expt. 3): 0.0217 h⁻¹
Kobs ([1]; r.t, alkyne 2c 1.00 mM, Expt. 1): 0.0273 h⁻¹
Kobs ([1]; r.t, alkyne 2c 1.00 mM, Expt. 2): 0.0269 h⁻¹
Kobs ([1]; r.t, alkyne 2c 1.00 mM, Expt. 3): 0.0289 h⁻¹
Kobs ([1]; r.t, alkyne 2c 1.25 mM, Expt. 1): 0.0339 h⁻¹
Kobs ([1]; r.t, alkyne 2c 1.25 mM, Expt. 2): 0.0324 h⁻¹
Kobs ([1]; r.t, alkyne 2c 1.25 mM, Expt. 3): 0.0359 h⁻¹
Kobs ([1]; r.t, alkyne 2d 0.75 mM, Expt. 1): 0.752 h⁻¹
Kobs ([1]; r.t, alkyne 2d 0.75 mM, Expt. 2): 0.704 h⁻¹
Kobs ([1]; r.t, alkyne 2d 0.75 mM, Expt. 3): 0.756 h⁻¹
Kobs ([1]; r.t, alkyne 2d 1.00 mM, Expt. 1): 0.980 h⁻¹
Kobs ([1]; r.t, alkyne 2d 1.00 mM, Expt. 2): 0.802 h⁻¹
Kobs ([1]; r.t, alkyne 2d 1.00 mM, Expt. 3): 1.01 h⁻¹
Kobs ([1]; r.t, alkyne 2d 1.25 mM, Expt. 1): 1.20 h⁻¹
Kobs ([1]; r.t, alkyne 2d 1.25 mM, Expt. 2): 1.10 h⁻¹
Kobs ([1]; r.t, alkyne 2d 1.25 mM, Expt. 3): 1.26 h⁻¹
Time of the Dox peak (in brackets in the Dox Peak % cell) ([2]; alkyne 2b): 16 h
Time of the Dox peak (in brackets in the Dox Peak % cell) ([2]; alkyne 2c): 20 h
Time of the Dox peak (in brackets in the Dox Peak % cell) ([2]; alkyne 2d): 48 h
